Laboratory results published in patent US11161864B2, “Sting agonists” (Venenum Biodesign, LLC, priority 2018, dated 2021).

Key:
CT-26 tumor = CT-26 tumor bearing mice, intra-tumoral treatment and re-challenge; conditions: 50 μg intra-tumoral Days 0, 3, 7
[1] = test system: STING signaling, RAW-Dual reporter cells; assay: Measurement of mouse IFN-β (ELISA); type: cell-based
Description: Mouse Interferon-β (IFN-β) in the supernatants of murine macrophages treated with STING activators was quantified using sandwich enzyme linked immunosorbent assay (ELISA). Briefly, IFN-β binds to plates coated with antibody and detection is accomplished using a detection antibody followed by streptavidin conjugated to horseradish peroxidase. Tetramethyl-benzidine is used as the substrate in this kit (PBL Assay Science). […] In this invention, mouse IFN-β ELISA is used to determine the potency of compound on STING pathway activation in mouse macrophages.
Murine macrophage derived cell line RAW-Dual reporter cells (Invivogen) were used to measure the IFN-β produced by STING signaling activation. Briefly, 20,000 cells in 27 μL were seeded into tissue culture treated 384-well plate that contained 3 μL of test compound. Cells were incubated at 37° C., in a 5% CO2 incubator for 5.5 hours. Supernatants from treated cells were diluted 20-fold and prior to measurement of IFN-β levels using ELISA kit (PBL Assay Science). 100 μL of diluted sample was added to ELISA plate. Plates were incubated at RT for 1 hour with shaking at 650 rpm. Post incubation, samples were aspirated from wells and the wells were washed 4 times. Diluted antibody (50 μL) was added to plates and incubated at RT for 30 minutes with shaking, followed by aspiration of antibody and 4× washes. Diluted HRP (horseradish peroxidase) solution (50 μL) was added and incubated for 10 minutes, followed by aspiration of the solution and 4× wash steps. After the final wash steps, plates were incubated with 100 μL of TMB (tetramethyl benzidine) substrate for 10 minutes, followed by addition of 100 μL of stop solution and plates were read on Envision plate reader for optical density.

[2] = test system: STING pathway, THP1 cells; assay: Human IFN-α/β induction assay (THP1 supernatants on HEK-Blue IFN-α/β reporter cells); type: cell-based; conditions: THP1 cells 5 hrs, HEK-Blue reporter cells 24 hrs
Description: Genetically engineered human type-1 Interferons (IFN-α/β) sensor cells-HEK Blue™ IFNα/β cells (Invivogen) were employed to measure the type-1 IFNs produced by THP1 cells that are treated with activators of STING. The human embryonic (HEK) Blue™ cells are specially designed to monitor the activation of JAK/STAT pathway induced by type 1 IFNs. Briefly, THP1 cells are treated with compounds for 5 hrs. In the second step, supernatants of THP1 cells are transferred to HEK Blue™ IFNα/β reporter cells and incubated for 24 hrs. The secreted embryonic alkaline phosphatase (SEAP) activity in the supernatants of HEK blue IFNα/3 reporter cells is measured and used to determine the quantities of IFNs.
HEK-Blue IFN-α/β reporter cells (Invivogen) were used to measure the secretion of IFN-α/β into culture supernatants of THP1 cells following STING pathway activation. In the first step, THP1 cells were cultured in presence of STING activators for 5 hrs at 37° C., in a 5% CO2 tissue culture incubator, which facilitates the release of IFN-α/β into the supernatants. In the second step, cell supernatants from THP1 cells were transferred to HEK-Blue IFN-α/β reporter cells and incubated at 37° C., in a 5% CO2 incubator for 24 hrs. HEK-Blue IFN-α/β reporter cells are specifically designed to monitor the activation of JAK-STAT pathway activation by type 1 IFNs. These cells express a secreted embryonic alkaline phosphatase (SEAP) reporter gene under the control of ISG54 promoter, which is a well-known interferon stimulatory gene activated by type 1 IFNs. Upon IFN-α/β stimulation, HEK-Blue IFN-α/β reporter cells activate the JAK-STAT pathway and subsequently the expression of the reporter gene. SEAP which is secreted in the supernatant is easily detectable using alkaline phosphatase detection medium (Quanti-Blue reagent from Invivogen).
These assays were run by adding 2 μL of compound stock solution to tissue culture treated 384-well plates with electronic pipettes. Compounds were diluted in autoclaved sterile water, initially spotted on the intermediate dilution plate and then to the assay plate. […]

[3] = molecular target: wild-type (WT) truncated human STING protein, amino acids 155-379 (Homo sapiens (Human), UniProt Q86WV6, H232R); assay: Human WT STING [3H] 2′,3′-cGAMP scintillation proximity competition binding assay; conditions: read-out: Human WT Binding IC50
Chain of wild-type (WT) truncated human STING protein, amino acids 155-379 (Q86WV6 155-379 H232R): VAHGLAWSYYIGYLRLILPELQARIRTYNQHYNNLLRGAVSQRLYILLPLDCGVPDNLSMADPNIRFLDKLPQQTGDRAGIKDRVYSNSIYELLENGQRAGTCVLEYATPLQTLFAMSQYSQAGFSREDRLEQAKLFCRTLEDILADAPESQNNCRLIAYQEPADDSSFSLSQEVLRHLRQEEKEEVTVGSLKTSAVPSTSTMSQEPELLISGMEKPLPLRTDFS
Description: (§1) A human STING [^3H] 2′,3′-cGAMP scintillation proximity competition binding assay was utilized to detect binding of compounds to STING protein. […] The protein encoding plasmid contained a HIS tag, followed by an Avi tag and then a SUMO tag, which were followed by the STING coding sequence within the pET-28a (+) vector. The plasmid was transfected into a BL21 (DE3)/BirA E. coli co-expression strain. Protein was purified from the bacterial lysate using a cobalt-affinity column. The purified protein was dialyzed against PBS and then 20% glycerol was added prior to storage at −80° C.
(§2) 2′,3′-cGAMP in assay buffer (50 mM Tris pH 7.5, 100 mM NaCl, 0.1% Fatty Acid Free BSA). Test compounds (2.5 μL) were added to the plate first followed by a 25 μL mixture of STING protein, streptavidin PVT SPA beads (Perkin Elmer) and 10 μL [^3H] 2′,3′-cGAMP. Plates were incubated at room temperature for 18 hrs and read on a Wallac MicroBeta TriLux (Perkin Elmer).

[4] = molecular target: murine STING protein (amino acids 154-378) (Mus musculus (Mouse), UniProt Q3TBT3); assay: Murine STING [3H] 2′,3′-cGAMP scintillation proximity competition binding assay; conditions: read-out: Murine Binding IC50
Chain of murine STING protein (amino acids 154-378) (Q3TBT3 154-378): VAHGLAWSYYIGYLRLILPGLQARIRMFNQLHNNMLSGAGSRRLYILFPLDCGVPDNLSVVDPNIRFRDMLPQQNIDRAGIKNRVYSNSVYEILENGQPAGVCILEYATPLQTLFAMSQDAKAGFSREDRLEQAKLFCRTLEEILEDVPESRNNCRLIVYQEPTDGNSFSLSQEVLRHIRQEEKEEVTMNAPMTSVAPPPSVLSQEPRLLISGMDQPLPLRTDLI

[5] = molecular target: AQ variant of truncated human STING protein, amino acids 155-379 (Homo sapiens (Human), UniProt Q86WV6, G230A/H232R/R293Q); assay: Human AQ STING [3H] 2′,3′-cGAMP scintillation proximity competition binding assay; conditions: read-out: Human AQ Binding IC50
Chain of AQ variant of truncated human STING protein, amino acids 155-379 (Q86WV6 155-379 G230A/H232R/R293Q): as the sequence (Q86WV6 155-379 H232R) above, with G76A, R139Q counted along it
Description: as §1, §2

Row | Compound | EC50 [1] [µM] | IC50 [3] [µM] | IC50 [4] [µM] | IC50 [5] [µM] | further results
1 | Nc1ncnc2c1ncn2[C@@H]1O[C@@H]2COP(=O)([S-])O[C@@H]3[C@H](O)[C@@H](COP([O-])(=S)O[C@H]2[C@H]1O)O[C@H]3n1cnc2c(N)ncnc21.[Na+].[Na+] (stereo partly drawn) [ADU-S100, reference compound] | > 5 | – | – | – | Number of surviving mice (CT-26 tumor; Day 0): 10/10; Number of surviving mice (CT-26 tumor; Day 3): 10/10; Number of surviving mice (CT-26 tumor; Day 7): 10/10; Number of surviving mice (CT-26 tumor; Day 10): 10/10; Number of surviving mice (CT-26 tumor; Day 14): 10/10; Number of surviving mice (CT-26 tumor; Day 17): 10/10; Number of surviving mice (CT-26 tumor; Day 20): 10/10; Number of surviving mice (CT-26 tumor; Day 23): 7/10; Number of surviving mice (CT-26 tumor; Day 35): 1/10; animals with complete regression of the tumors (CT-26 tumor; by Day 30): None; EC50 [2]: > 10 µM
2 | Nc1nc2ncn([C@@H]3O[C@@H]4COP(=O)(S)OCCn5c(nc6cc(Cl)cnc65)COP(=O)(S)O[C@@H]3[C@@H]4F)c2c(=O)[nH]1 (single isomer, unassigned) [Example 13B] | – | 10 to 100 | 1 to 9.99 | 10 to 100 | –
3 | Nc1nc2c(ncn2[C@@H]2O[C@@H]3COP(=O)(S)OCCn4c(nc5cncnc54)COP(=O)(S)O[C@@H]2[C@@H]3F)c(=O)[nH]1 (single isomer, unassigned) [Example 1D] | > 5 | – | – | < 1 | EC50 ([2]; Homo sapiens, THP-1): < 5 µM
4 | Nc1nc2c(ncn2[C@@H]2O[C@@H]3COP(=O)(O)OCCn4c(nc5cncnc54)COP(=O)(O)O[C@@H]2[C@@H]3O)c(=O)[nH]1 [Example 10, (1R,21R,23R,24R)-23-(2-Amino-6-oxo-6,9-dihydro-1H-purin-9-yl)-3,18,24-trihydroxy-2,4,17,19,22-pentaoxa-7,10,12,14-tetraaza-3lambda5,18lambda5-diphosphatetracyclo[19.2.1.06,14.08,13]tetracosa-6,8,10,12-tetraene-3,18-dione] | – | 10 to 100 | < 1 | 1 to 9.99 | –
5 | Nc1nc2c(ncn2[C@@H]2O[C@@H]3COP(=O)(S)OCCCn4c(nc5cncnc54)COP(=O)(S)O[C@@H]2[C@@H]3O)c(=O)[nH]1 (stereo partly drawn) [Example 9, (1R,22R,24R,25R)-24-(2-Amino-6-oxo-6,9-dihydro-1H-purin-9-yl)-25-hydroxy-3,19-disulfanyl-2,4,18,20,23-pentaoxa-7,10,12,14-tetraaza-3lambda5,19lambda5-diphosphatetracyclo[20.2.1.06,14.08,13]pentacosa-6,8,10,12-tetraene-3,19-dione] | – | 10 to 100 | 1 to 9.99 | 1 to 9.99 | –
6 | Nc1nc2c(ncn2[C@@H]2O[C@@H]3COP(=O)(S)OCCn4c(nc5cncnc54)COP(=O)(S)O[C@@H]2C3(F)F)c(=O)[nH]1 (stereo partly drawn) [Example 36D, (1S,21R,23R)-23-(2-Amino-6-oxo-6,9-dihydro-1H-purin-9-yl)-24,24-difluoro-3,18-disulfanyl-2,4,17,19,22-pentaoxa-7,10,12,14-tetraaza-3lambda5,18lambda5-diphosphatetracyclo[19.2.1.06,14.08,13]tetracosa-6,8,10,12-tetraene-3,18-dione] | – | 10 to 100 | < 1 | 1 to 9.99 | –
